Values joined by “and” are separate entries in the source; they are usually repeats but may differ in a detail not shown here. Equal values may be shown once.
Test system: 653999-131-R-J2-PDC complex spheroids, growth inhibition
Assay: Anticancer human tumor 653999-131-R-J2-PDC patient-derived lung adenocarcinoma cell line growth inhibition [RAS]
Conditions: for viability, T/C: stronger effect = lower value; active = viability on the fitted dose curve at most 10% of control; inactive = the rest
From the text: RAS pathway inhibitors in Combinations in Complex Spheroids
A high-throughput screen of multi-cell type tumor spheroids was designed to identify active combinations of RAS pathway inhibitors and targeted small molecules. Complex spheroids include a stromal component modeled by human endothelial cells (HUVEC) and fibroblasts modeled by human mesenchymal stem cells (MSCs). The concentration ranges selected for each drug and investigational agent were based upon clinically achievable concentrations if the clinical Cmax of the agent was known.
Compounds. The drugs and investigational agents: abemaciclib (NSC768073), cobimetinib (NSC768068), divarasib (GDC6063, NSC841802), docetaxel (NSC628503), GDC-1971 (RLY-1971, NSC841576), gemcitabine (NSC613327), inavolisib (NSC800729), ipatasertib (NSC767898), KB-0742 (NSC834161), MRTX-1133 (NSC836407), osimertinib (NSC779217), RMC-4630 (NSC839698), RMC-6236 (NSC851965), RMC-6291 (NSC852671), Ro-3306 (NSC812927), sapanisertib (NSC764658), SN-38 (NSC673596), staurosporine (NSC755774), SY5609 (NSC837396), and tovorafenib (DAY101, NSC766906), were obtained from the National Cancer Institute (NCI) Developmental Therapeutics Program Chemical Repository. The FDA-approved anticancer drug set is available from the NCI Developmental Therapeutics Program. […] The stock solutions were prepared in dimethyl sulfoxide (DMSO, Sigma-Aldrich, St. Louis, MO, cat. D2650) at 800-fold the tested concentration and stored at -70 degrees C prior to their use. All drugs and investigational agents were tested over a range starting from a high concentration at or near the clinical Cmax and decreasing in half-log increments. If the clinical Cmax for an agent had not been determined, the highest concentration tested was 10 microM.
Cell Culture. All cells were maintained in an incubator at 37 degrees C and 5% CO2 with 95% humidity. The PDC lines were cultured according to standard operating procedures established by the NCI PDMR. All PDCs were thawed and cultured in Matrigel-coated flasks prepared with a working solution of 1X Ham's F-12 nutrient mix, without supplementation (Invitrogen, Waltham, MA, cat. 11765054), 100 U/mL penicillin-streptomycin (Invitrogen, cat. 15140122), and 2.5% Matrigel (Corning Inc., Corning, NY, cat. 354248) for the first three passages. The 362531-283-R-J2-PDC and 782815-120-R-J1-PDC lines were cultured in 6C/Colon 1B media, which includes advanced DMEM/F-12 (Thermo Fisher Scientific, cat. 12634028), 10 mM HEPES (Thermo Fisher Scientific, cat. 15630080), 1X GlutaMAX supplement (Thermo Fisher Scientific, cat. 35050061), 0.1 mg/mL primocin (InvivoGen, San Diego, CA, cat. ant-pm-2), 10% defined fetal bovine serum, heat inactivated (HyClone Laboratories Inc., Logan, UT, cat. SH30070.03HI), 50% L-WRN conditioned media (ATCC, cat. CRL-3276), 1.25 mM N-Acetyl-L-cysteine (Sigma-Aldrich, cat. A9165), 10 mM nicotinamide (Sigma-Aldrich, cat. N0636), 1X B-27 supplement (Thermo Fisher Scientific, cat. 17504044), 1X N-2 supplement (Thermo Fisher Scientific, cat. 17502048), 50 ng/mL human EGF (Thermo Fisher Scientific, cat. PHG0311), and 10 microM Y-27632 dihydrochloride (Tocris Bioscience, cat. 1254). The K12877-001-R-J1-PDC line was cultured in 6I media, which includes all 6C/Colon 1B media plus 10 ng/mL human FGF-10 (PeproTech, cat. 100-26), 1 ng/mL human FGF-2 (PeproTech, cat. 100-18B), 1 µM prostaglandin E2 (Tocris Bioscience, cat. 2296), […] hydrocortisone (Sigma-Aldrich, cat. H4001), and […] bovine insulin (Sigma-Aldrich, cat. I6634). The K86415-001-R-J1-PDC line was cultured in 6D media, which includes all 6C/Colon 1B media components minus the L-WRN conditioned media. The 485176-168-R4-J1-PDC was cultured in PANC media, which includes all 6C/Colon 1B media plus 100 ng/mL human FGF-10 (PeproTech, cat. 100-26), 500 nM SB-431542 (Selleckchem, cat. S1067), and 10 nM gastrin (Tocris Bioscience, cat. 3006). […]
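Also: spheroids exposed to the agents for seven days before the readout.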

Nc1ccn(C2OC(CO)C(O)C2(F)F)c(=O)n1 (configuration not stated) + CCn1c(-c2cccnc2C(C)OC)c2c3cc(ccc31)N1CCOC(CC(NC(=O)C(C(C)C)N(C)C(=O)C3(F)CCN(C(=O)C#CC(C)(C)N(C)C)CC3)C(=O)N3CCCC(N3)C(=O)OCC(C)(C)C2)C1
64.4 nM: IC50 (curve of first compound, second compound 0.03 µM)
61.9 nM: IC50 (curve of first compound, second compound 0.00949 µM)
70.6 nM: IC50 (curve of first compound, second compound 0.000949 µM)
inactive: viability, T/C (second compound 0.000949 µM, first compound 0.00316 µM) 93.8% | viability, T/C (second compound 0.000949 µM, first compound 0.01 µM) 74.9% | viability, T/C (second compound 0.000949 µM, first compound 0.0316 µM) 59.8% | viability, T/C (second compound 0.000949 µM, first compound 0.1 µM) 41.4% | viability, T/C (second compound 0.000949 µM, first compound 0.316 µM) 49.4% | viability, T/C (second compound 0.000949 µM, first compound 1 µM) 37.4% | viability, T/C (second compound 0.003 µM, first compound 0.00316 µM) 110% | viability, T/C (second compound 0.003 µM, first compound 0.01 µM) 74.8% | viability, T/C (second compound 0.003 µM, first compound 0.0316 µM) 57.9% | viability, T/C (second compound 0.003 µM, first compound 0.1 µM) 44.7% | viability, T/C (second compound 0.003 µM, first compound 0.316 µM) 44% | viability, T/C (second compound 0.003 µM, first compound 1 µM) 36.1% | viability, T/C (second compound 0.00949 µM, first compound 0.00316 µM) 93.1% | viability, T/C (second compound 0.00949 µM, first compound 0.01 µM) 67.1% | viability, T/C (second compound 0.00949 µM, first compound 0.0316 µM) 59.7% | viability, T/C (second compound 0.00949 µM, first compound 0.1 µM) 45.5% | viability, T/C (second compound 0.00949 µM, first compound 0.316 µM) 36.9% | viability, T/C (second compound 0.00949 µM, first compound 1 µM) 38.2% | viability, T/C (second compound 0.03 µM, first compound 0.00316 µM) 93.8% | viability, T/C (second compound 0.03 µM, first compound 0.01 µM) 66.9% | viability, T/C (second compound 0.03 µM, first compound 0.0316 µM) 57.7% | viability, T/C (second compound 0.03 µM, first compound 0.1 µM) 50.3% | viability, T/C (second compound 0.03 µM, first compound 0.316 µM) 36% | viability, T/C (second compound 0.03 µM, first compound 1 µM) 31.8% | viability, T/C (second compound 0.0949 µM, first compound 0.00316 µM) 94.5% | viability, T/C (second compound 0.0949 µM, first compound 0.01 µM) 64.9% | viability, T/C (second compound 0.0949 µM, first compound 0.0316 µM) 53.8% | viability, T/C (second compound 0.0949 µM, first compound 0.1 µM) 45.6% | viability, T/C (second compound 0.0949 µM, first compound 0.316 µM) 37.2% | viability, T/C (second compound 0.0949 µM, first compound 1 µM) 33.2% | viability, T/C (second compound 0.3 µM, first compound 0.00316 µM) 91.5% | viability, T/C (second compound 0.3 µM, first compound 0.01 µM) 78.3% | viability, T/C (second compound 0.3 µM, first compound 0.0316 µM) 62.2% | viability, T/C (second compound 0.3 µM, first compound 0.1 µM) 40.1% | viability, T/C (second compound 0.3 µM, first compound 0.316 µM) 33.3% | viability, T/C (second compound 0.3 µM, first compound 1 µM) 33.5%
59.3 nM: IC50 (curve of first compound, second compound 0.3 µM)
42.5 nM: IC50 (curve of first compound, second compound 0.0949 µM)
66.1 nM: IC50 (curve of first compound, second compound 0.003 µM)

C=CC(=O)Nc1cc(Nc2nccc(-c3cn(C)c4ccccc34)n2)c(OC)cc1N(C)CCN(C)C
inactive: viability, T/C (compound 0.00316 µM) 98% [middle of 4 runs] | viability, T/C (compound 0.01 µM) 89.8% [middle of 4 runs] | viability, T/C (compound 0.0316 µM) 94.7% [middle of 4 runs] | viability, T/C (compound 1 µM) 62.9% [middle of 4 runs]
> 1000 nM and 291 nM: IC50 (curve of compound)

From PubChem BioAssay AID2060886 (Molecular Pharmacology Branch, DTP, NCI, 2025)
